Reference: patent US4315005A, “Cephalosporin antibiotics” (Glaxo Group Limited, priority 1979, dated 1982)

Tests used:
[1] = tested on: strains of Staphylococcus aureus; experiment: antibacterial activity against Staphylococcus aureus; assay type: cell-based
[2] = tested on: wide range of commonly encountered pathogenic organisms; experiment: broad spectrum antibiotic activity; assay type: cell-based
[3] = effect of increased inocula; assay type: cell-based
[4] = tested on: strains of Pseudomonas organisms, e.g. strains of Pseudomonas aeruginosa; experiment: antibacterial activity against Pseudomonas strains; assay type: cell-based
[5] = tested on: strains of Pseudomonas aeruginosa; experiment: protection of mice against strains of Pseudomonas aeruginosa; assay type: in vivo; conditions: for protection compared with treatment with an aminoglycoside such as amikacin: vs amikacin
gram-negative bacteria = experiment: experimental infections in mice with gram-negative bacteria; assay type: in vivo
[6] = effect of human serum on antibacterial properties; assay type: cell-based
[7] = distribution in the bodies of small rodents; assay type: in vivo
[8] = administration of 500 mg/kg to mice (lethality); assay type: in vivo; conditions: for deaths: 500 mg/kg; for LD50: mouse, in vivo
[9] = serum half-life in primates; assay type: in vivo; conditions: extrapolated to man

Row | SMILES | activity against strains of Staphylococcus aureus [1] | general antibiotic properties [2] | effect of increased inocula against the compounds [3] | activity against strains of Pseudomonas [4] | protection against strains of Pseudomonas aeruginosa [5] | protection compared with treatment with an aminoglycoside such as amikacin [5] | treatment of experimental infections with gram-negative bacteria (gram-negative bacteria) | antibacterial properties in human serum [6] | distribution in the body [7] | therapeutic levels after subcutaneous injection [7] | deaths [8] | LD50 [8] | probable half-life in man from serum half-life in primates [9]
1 | NC(=O)C[n+]1ccc(SCC2=C(C(=O)[O-])N3C(=O)[C@@H](NC(=O)/C(=N\OC4(C(=O)O)CCC4)c4csc(N)n4)[C@H]3SC2)cc1 [(6R,7R)-7-[(Z)-2-(2-Aminothiazol-4-yl)-2-(1-carboxycyclobut-1-oxyimino)acetamido]-3-[(1-carbamoylmethylpyridinium-4-yl)thiomethyl]ceph-3-em-4-carboxylate] | useful activity | to an outstanding extent | low | excellent activity | good protection | comparable with the treatment with an aminoglycoside such as amikacin | successfully treated | generally are not impaired by human serum | well distributed | useful therapeutic levels | did not cause any deaths | > 500 mg/kg | comparatively long half-life in man
2 | CC(C)(O/N=C(\C(=O)N[C@@H]1C(=O)N2C(C(=O)[O-])=C(CSc3cc[n+](CC(N)=O)cc3)CS[C@H]12)c1csc(N)n1)C(=O)O [(6R,7R)-7-[(Z)-2-(2-Aminothiazol-4-yl)-2-(2-carboxyprop-2-oxyimino)acetamido] -3-[(1-carbamoylmethylpyridinium-4-yl)thiomethyl]ceph-3-em-4-carboxylate] | useful activity | to an outstanding extent | low | excellent activity | good protection | comparable with the treatment with an aminoglycoside such as amikacin | successfully treated | generally are not impaired by human serum | well distributed | useful therapeutic levels | did not cause any deaths | > 500 mg/kg | comparatively long half-life in man
